Test results taken from US6420363B1, “Mono- or polyenic carboxylic acid derivatives” (Eisai Co., Ltd., priority 1994, dated 2002).

Legend:
[1] = target: T1, all-trans retinoic acid receptors (RAR) (Homo sapiens, UniProt P10276); assay: Receptor binding assay using nuclear extract fraction of human promyelocytic leukemia cell HL60; conditions: inhibition of specific binding of 3H-all-trans retinoic acid, 4° C., 16 hours
T1 construct: determined by the use of the nuclear extract fraction of HL60; endogenous in cells; host or cells: HL60 human promyelocytic leukemia cells, nuclear extract fraction
T1 sequence (P10276 1-462): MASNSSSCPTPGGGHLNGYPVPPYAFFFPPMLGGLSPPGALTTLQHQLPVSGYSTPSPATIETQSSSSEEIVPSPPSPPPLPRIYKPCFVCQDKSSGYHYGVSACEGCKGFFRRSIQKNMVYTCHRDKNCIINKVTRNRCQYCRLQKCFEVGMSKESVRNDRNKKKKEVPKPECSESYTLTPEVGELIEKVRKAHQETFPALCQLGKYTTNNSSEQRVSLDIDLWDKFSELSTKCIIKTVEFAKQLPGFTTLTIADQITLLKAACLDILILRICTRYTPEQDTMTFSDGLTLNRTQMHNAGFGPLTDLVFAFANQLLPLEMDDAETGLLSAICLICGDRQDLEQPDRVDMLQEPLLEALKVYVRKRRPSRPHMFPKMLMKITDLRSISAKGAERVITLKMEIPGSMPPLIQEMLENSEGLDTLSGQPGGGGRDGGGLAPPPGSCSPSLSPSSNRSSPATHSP
Protocol: Receptor Binding Assay Using Human Promyelocytic Leukemia Cell HL60
It is known that all-trans retinoic acid receptors (retinoic acid receptor: RAR) are is present in the nuclei of HL60 cells (Clara Nervi et al., Proc. Natl. Acad. Sci. U.S.A. 86, 5854(1989)). Therefore, the specific binding of all-trans retinoic acid for RAR was determined by the use of the nuclear extract fraction of HL60, and each test compound was examined for the ability to bind RAR by determining the inhibition against the specific binding.
The nuclear extract fraction was prepared as follows.
HL60 cells (5×10^8) were suspended in 15 ml of solution A (sodium phosphate (pH7.4): 5 mM, monothioglycerol: 10 mM, glycerol: 10% (v/v), phenylmethylsulfonyl fluoride (PMSF): 1 mM, aprotinin: 10 μg/ml, and leupeptin: 25 μg/ml). The obtained suspension was homogenized by the use of a homogenizer and centrifuged to remove the resulting supernatant. The sediment thus formed was suspended in 15 ml of solution B (Tris-HCl(pH8.5): 10 mM, monothioglycerol: 10 mM, glycerol: 10% (v/v), PMSF: 1 mM, aprotinin: 10 μg/ml, leupeptin: 25 μg/ml, and KCl: 0.8 M). The obtained suspension was allowed to stand at 4° C. for one hour, and subjected to ultracentrifugation (100,000×g, 4° C., 1 hr). The obtained supernatant was stored as the nuclear extract fraction in a frozen state at −80° C. until the use (METHODS IN ENZYMOLOGY, 189, 248).
The receptor binding assay was conducted as follows.
180 μl of the above fraction and 10 μl of a dilution of all-trans retinoic acid or a test compound were added to each well of a 96-well plate made of polypropylene, followed by the addition of 10 μl of 10 nM^3H-all-trans retinoic acid. The resulting plate was allowed to stand at 4° C. for 16 hours. A solution containing 3% of charcoal and 0.3% of dextran was added to the resulting reaction mixture. The mixture thus obtained was centrifuged to remove free ^3H-all-trans retinoic acid. The radioactivity of the resulting supernatant was determined by the use of a scintillation counter. The specific binding of ^3H-all-trans retinoic acid for RAR was determined by assuming the radioactivity found when 200 times as much all-trans retinoic acid was added to be the non-specific binding and subtracting it from the radioactivity determined above. The compounds which will be described below inhibited the binding of ^3H-all-trans retinoic acid dependently on the concentration.

[2] = system: HL60 cells; assay: Antagonism against all-trans retinoic acid in inducing the differentiation of HL60 cells (CD11b-positive cells, flow cytometry); assay type: cell-based; conditions: Homo sapiens, HL-60, 120 h; CD11b-positive cells induced by 10 nM all-trans retinoic acid, 5 days
From the text: Antagonism Against All-trans Retinoic Acid in Inducing the Differentiation of HL60 Cells
It is known that human promyelocytic leukemia cells HL60 differentiate into granulocyte-like cells in the presence of all-trans retinoic acid (Breitman, T., Selonick, S., and Collins, S., Proc. Natl. Acad. Sci. U.S.A. 77, 2936(1980)). In general, cells allow specific differentiation antigens to be expressed on the cell surfaces when they have achieved differentiation. When HL60 cells differentiate into granulocyte-like cells, CD11b which is a granulocyte/monocyte discriminating antigen is expressed on the cell surfaces (Fontana, J A., Reppuci, A., Durham, J P., and Mirand, D., Cancer Res. 46, 2469-2473 (1986)). The antagonism of a test compound against the differentiation into granulocyte-like cells induced by all-trans retinoic acid was studied by utilizing this phenomenon.
HL60 cells were cultured and maintained in a medium prepared by adding 10% of inactivated fetal bovine serum, 1 mM of sodium pyridinecarboxylate, 50 μM of β-mercaptoethanol, 100 IU/ml of penicillin and 100 μg/ml of streptomycin to RPMI1640 (culture medium formulated by Rosewell Park Memorial Institute).
An HL60 cell suspension (1×10^5 cells/ml) was put in a 48-well plate in an amount of one ml per unit well, followed by the addition of all-trans retinoic acid in a concentration of […] and a retinoid antagonist in various concentrations. The resulting mixtures were cultured in a 5% CO2-air incubator for 5 days. After the completion of the culture, the cells in each well was recovered into a test tube, followed by the addition of an FITC-labeled monoclonal antibody against CD11b (which is a specific antigen against glanulocytes and monocytes). The resulting cell suspension was fixed with 0.2% paraformaldehyde. The fixed cell suspension thus obtained was examined for the content of CD11b-positive cells in the HL60 cell population of each well by flow cytometry (Miller, L. J., Schwarting, R., and Springer, T A., J. Immunol. 137, 2891-2900 (1986)). The compounds which will be described below lowered the content of CD11b-positive cells induced by 10 nM all-trans retinoic acid dependently on the concentration.

Row | Structure (SMILES) | IC50 [1] [nM] | IC50 [2] [nM] | melting point [°C]
1 | CC(/C=C/C(C)=C/c1ccc2c(c1)CCCN2C(C)C)=C\C(=O)O [Example 4, (E,E,E)-7-[1-(1-methylethyl)-1,2,3,4-tetrahydroquinolin-6-yl]-3,6-dimethyl-hepta-2,4,6-trienoic acid] | 20 | 74 | –
2 | CC(/C=C/C(F)=C(/C)c1ccc2c(c1)CCCN2C(C)C)=C\C(=O)O [Example 5, (E,E,E)-7-[1-(1-methylethyl)-1,2,3,4-tetrahydroquinolin-6-yl]-6-fluoro-3-methyl-octa-2,4,6-trienoic acid] | 5.4 | 39 | –
3 | COC(=O)/C=C(C)/C=C/C(F)=C(/C)c1ccc2c(c1)C(C)CCN2C(C)C (stereo not shown) [Example 8, Methyl (E,E,E)-7-[1-(1-methylethyl)-4-methyl-1,2,3,4-tetrahydroquinolin-6-yl]-6-fluoro-3-methyl-octa-2,4,6-trienoate] | 17 | 470 | –
4 | CC(/C=C/C(F)=C(/C)c1ccc2c(c1)C(C)CCN2C(C)C)=C\C(=O)O (stereo not shown) [Example 9, (E,E,E)-7-[1-(1-Methylethyl)-4-methyl-1,2,3,4-tetrahydroquinolin-6-yl]-6-fluoro-3-methyl-octa-2,4,6-trienoic acid] | > 50 | 880 | –

Results, then the compound that gave them:

Row | IC50 [1] [nM] | IC50 [2] [nM] | melting point [°C] | Structure (SMILES)
5 | 12.5 | 29 | – | CCOC(=O)/C(F)=C(/C)c1ccc2c(c1)CC(C)CN2C(C)C (stereo not shown) [Example 13, Ethyl (E)-3-[1-(1-methylethyl)-3-methyl-1,2,3,4-tetrahydroquinolin-6-yl]-2-fluoro-2-butenoate]
6 | 13 | 130 | – | COC(=O)/C=C(C)/C=C/C(F)=C(/C)c1ccc2c(c1)CC(C)CN2C(C)C (stereo not shown) [Example 14, Methyl (E,E,E)-7-[1-(1-methylethyl)-3-methyl-1,2,3,4-tetrahydroquinolin-6-yl]-6-fluoro-3-methyl-octa-2,4,6-trienoate]
7 | – | – | 289 to 290 | CC1(C)CCC(C)(C)c2c1sc1c2-c2c(c(-c3ccc(C(=O)O)cc3)cn2Cc2cccnc2)CC1 [Example 210]
